The source of these data is US20250073165A1, “OLANZAPINE, COMPOSITIONS THEREOF AND METHODS OF USE THEREOF” (Teva Pharmaceuticals International GmbH, priority 2022, published 2025).

Series [1] in a line: Particle size distribution (PSD) by laser diffraction, Malvern Mastersizer 2000. The format is physicochemical. As to the method: (§1) For the purposes herein, particle size distribution (PSD) is determined as the percent volume, i.e. D(90) and D(3,2) and was measured by laser diffraction using a Malvern Mastersizer 2000 equipped with a Hydro 2000 S dispersion unit.
(§2) The measurements were performed in saturated water dispersion medium (refractive index=[…] (general purpose)). The water was saturated with olanzapine to prevent dissolution of the sample while measuring. Dispersion medium was prepared by adding about 3 gm olanzapine to 1 liter water, sonicating in an ultrasound bath for 30 min and filtering (0.22-0.45 μm). The samples were added as concentrated suspension under stirring until an obscuration rate of 10-20% was reached. The results were values arising from ten measurement cycles with a recirculation time (after sonification) of 30 sec.
(§3) Sample preparation: Samples were prepared as concentrated suspensions. About 50-100 mg of the olanzapine sample was added with a spatula to a small sized glass beaker and several drops of saturated water dispersion medium was added. A paste was obtained by mild mixing, and an additional quantity (1 ml) of saturated water dispersion medium was added in order to obtain a concentrated homogeneous suspension.

Series [2] is described as follows: Bulk/tapped density, Ph. Eur. 2.9.34 Method 1, ERWEKA SVM 122. The format is physicochemical. As to conditions: Table 1. The method, then: Bulk density/tapped density were determined by European Pharmacopoeia 2.9.34. Method 1 (https://www.drugfuture.com/Pharmacopoeia/EP7/DATA/20934E.PDF; PDF downloaded Nov. 14, 2021).
The bulk and tapped densities were determined using the Tapped Density Tester SVM 122 from ERWEKA, equipped with a 100 mL glass cylinder. Approximately 30 g of the powder was carefully poured into the 100 mL measuring cylinder with a funnel. Bulk density was calculated by dividing the amount of powder (in gram) by the measured volume (mL). The tapped density was then determined as follows:
If the difference between V500 and V1250 was bigger than 2 mL, taps were repeated: i.e. tapped another 1250× and repeated until difference was below 2 mL. • Bulk density=sample weight/volume before tapping. • Tapped density=weight/volume after tapping. • Calculation: […]

A short description of series [3]: Flow function by FT4 Powder Rheometer, shear test 9 kPa. The format is physicochemical. The following applies: 9 kPa shear test, 1 ml cell. The method, then:
The flow function (FF) was determined by using FT4 Powder Rheometer, Freeman FT4 instrument, and standard Freeman shear test −9 kPa (using small cell 1 ml), according to the procedure below: • Compact to 9 kPa for 60 s • Pre shear hold 7 kPa for 16 s • Shear test at 7 kPa (Shear at 18°/min for 10°, auto detected peak torque yes) • Pre shear hold 6 kPa for 16 s • Shear test at 6 kPa (Shear at 18°/min for 10°, auto detected peak torque yes) • Pre shear hold 5 kPa for 16 s • Shear test at 5 kPa (Shear at 18°/min for 10°, auto detected peak torque yes) • Pre shear hold 4 kPa for 16 s • Shear test at 4 kPa (Shear at 18°/min for 10°, auto detected peak torque yes) • Pre shear hold 3 kPa for 16 s • Shear test at 3 kPa (Shear at 18°/min for 10°, auto detected peak torque yes)

The nature of series [4]: PSD of bulk API compared to PSD of API in vial after dry heat sterilization. As to conditions: for D(3,2) / D(90): Table 3, bulk API or API in vial after dry heat sterilization 150-160° C., two hours, per sample name. The format is physicochemical. As to the method: as §1, §2, §3
Closed and crimped vials filled with API were terminally sterilized at 150-160° C. using dry heat for two hours in dry heat oven SP-470 by Kambič (Slovenia). Additional methods of terminal sterilization include radiation including for example, gamma radiation, X-ray, electron beam and the like with similar results. Alternatively, the API may be prepared aseptically
The manufacturing process for the final drug product includes a terminal sterilization step, and specifically the quality of the bulk API should not be affected by sterilization. Therefore, after the dry heat sterilization, samples of API in vials filled with two batches (with low PSD) were analyzed for PSD and compared to starting API material.

For series [5] the following is noted: background statement; cited from earlier work.
[6] abbreviates: Table 4, listed as Olanzapine M7-121.
[7] abbreviates: Table 4, listed as Olanzapine S3-221.
Where [8] appears, read: Table 4, listed as Olanzapine M1-010.
[9] abbreviates: Table 4, listed as Olanzapine S1-220.
Setting [10] is: Table 4, listed as Olanzapine M6-020.
The mark [11] stands for this setting: Table 4, listed as Olanzapine S1-920.
Where [12] appears, read: Table 4, listed as Olanzapine S2-920.
[13] abbreviates: Table 4, listed as Olanzapine S3-020.

As for `Cc1cc2c(s1)Nc1ccccc1N=C2N1CCN(C)CC1` [Olanzapine S4-221, 2-methyl-4-(4-methyl-1-piperazinyl)-10H-thieno[2,3-b][1,5]benzodiazepine], in series [1] (Table 4), the “D(90)” value was 26 μm and the “D(100)” value came out at 110 μm.

For `Cc1cc2c(s1)Nc1ccccc1N=C2N1CCN(C)CC1` [Batch M7-121, 2-methyl-4-(4-methyl-1-piperazinyl)-10H-thieno[2,3-b][1,5]benzodiazepine], the “TD (tapped density)” value in series [2] is on record as 0.50 g/mL. In series [3], this compound returned a Flow function of 2.1. In series [1] (Table 1, bulk API batch), the “D(3,2)” value is 8.3 μm and the “D(90)” value stood at 42 μm. Further, in series [1] (setting [6]), the “D(90)” value is reported as 40 μm and the “D(100)” value came out at 205 μm.

`Cc1cc2c(s1)Nc1ccccc1N=C2N1CCN(C)CC1` [Batch S3-221, 2-methyl-4-(4-methyl-1-piperazinyl)-10H-thieno[2,3-b][1,5]benzodiazepine]: the “TD (tapped density)” value in series [2] worked out at 0.40 g/mL. The compound also displayed a Flow function in series [3] of 1.8. In series [1] (Table 1, bulk API batch), the “D(3,2)” value is given as 6.4 μm and the “D(90)” value was 26 μm. In series [1] (setting [7]), the “D(90)” value was determined as 24 μm and the “D(100)” value turned out to be 61 μm.

Regarding `Cc1cc2c(s1)Nc1ccccc1N=C2N1CCN(C)CC1` [Batch M1-010, 2-methyl-4-(4-methyl-1-piperazinyl)-10H-thieno[2,3-b][1,5]benzodiazepine], the “TD (tapped density)” value in series [2] is given as 0.37 g/mL. The “D(3,2)” value is given as 4.7 μm in series [4] and 4.2 μm in series [1] (Table 1, bulk API batch). Further, the “D(90)” value in series [4] is reported as 14 μm; in series [1] (Table 1, bulk API batch) it was 13 μm; in series [1] (setting [8]), 14 μm. Also, the Flow function in series [3] turned out to be 1.4. Further, in series [1] (setting [8]), the “D(100)” value is recorded as 42 μm.

As to `Cc1cc2c(s1)Nc1ccccc1N=C2N1CCN(C)CC1` [Batch S1-220, 2-methyl-4-(4-methyl-1-piperazinyl)-10H-thieno[2,3-b][1,5]benzodiazepine], the “TD (tapped density)” value in series [2] worked out at 0.39 g/mL. In addition, in series [4], the “D(3,2)” value was 5.8 μm and the “D(90)” value is 29 μm. In addition, the Flow function in series [3] came to 1.5. For the same compound, in series [1] (Table 1, bulk API batch), the “D(3,2)” value is recorded as 6.1 μm and the “D(90)” value is 26 μm. Besides, in series [1] (setting [9]), the “D(90)” value turned out to be 29 μm and the “D(100)” value is recorded as 142 μm.

As for `Cc1cc2c(s1)Nc1ccccc1N=C2N1CCN(C)CC1` [Batch M2-121, 2-methyl-4-(4-methyl-1-piperazinyl)-10H-thieno[2,3-b][1,5]benzodiazepine], the “TD (tapped density)” value in series [2] is on record as 0.39 g/mL. In addition, in series [4], the “D(3,2)” value came to 7.5 μm and the “D(90)” value turned out to be 40 μm. The Flow function in series [3] was determined as 1.5. For the same compound, in series [1] (Table 1, bulk API batch), the “D(3,2)” value stood at 6.4 μm and the “D(90)” value is on record as 30 μm.

For `Cc1cc2c(s1)Nc1ccccc1N=C2N1CCN(C)CC1` [Batch M6-020, 2-methyl-4-(4-methyl-1-piperazinyl)-10H-thieno[2,3-b][1,5]benzodiazepine], in series [2], the “TD (tapped density)” value was determined as 0.41 g/mL. For the same compound, in series [4], the “D(3,2)” value was found to be 6.5 μm and the “D(90)” value stood at 24 μm. Also, the Flow function in series [3] was found to be 2.0. Besides, in series [1] (Table 1, bulk API batch), the “D(3,2)” value is 6.6 μm and the “D(90)” value stood at 24 μm. Further, in series [1] (setting [10]), the “D(90)” value was found to be 24 μm and the “D(100)” value came to 205 μm.

With `Cc1cc2c(s1)Nc1ccccc1N=C2N1CCN(C)CC1` [Batch S1-920, 2-methyl-4-(4-methyl-1-piperazinyl)-10H-thieno[2,3-b][1,5]benzodiazepine], the “TD (tapped density)” value in series [2] is 0.29 g/mL. In series [4], the “D(3,2)” value stood at 3.9 μm and the “D(90)” value was determined as 11 μm. For the same compound, the Flow function in series [3] came to 1.2. Besides, in series [1] (Table 1, bulk API batch), the “D(3,2)” value was 4.1 μm and the “D(90)” value is reported as 11 μm. For the same compound, in series [1] (setting [11]), the “D(90)” value amounted to 11 μm and the “D(100)” value is on record as 21 μm.

Take `Cc1cc2c(s1)Nc1ccccc1N=C2N1CCN(C)CC1` [Batch S2-920, 2-methyl-4-(4-methyl-1-piperazinyl)-10H-thieno[2,3-b][1,5]benzodiazepine]: the “TD (tapped density)” value in series [2] turned out to be 0.45 g/mL. This compound also registered a Flow function in series [3] of 2.0. In series [1] (Table 1, bulk API batch), the “D(3,2)” value was determined as 7.6 μm and the “D(90)” value is reported as 38 μm. Besides, in series [1] (setting [12]), the “D(90)” value is 38 μm and the “D(100)” value is given as 136 μm.

Take `Cc1cc2c(s1)Nc1ccccc1N=C2N1CCN(C)CC1` [Olanzapine, 2-methyl-4-(4-methyl-1-piperazinyl)-10H-thieno[2,3-b][1,5]benzodiazepine]: in series [5], the Water solubility entry is on record as “poor”.

Take `Cc1cc2c(s1)Nc1ccccc1N=C2N1CCN(C)CC1` [Batch S3-020, 2-methyl-4-(4-methyl-1-piperazinyl)-10H-thieno[2,3-b][1,5]benzodiazepine]: in series [2], the “TD (tapped density)” value is recorded as 0.28 g/mL. In series [4] (FIG. 4B), the “PSD curves before and after sterilization” value was “highly similar”. In series [4], the “D(3,2)” value is reported as 5.2 μm and the “D(90)” value is reported as 16 μm. In addition, the Flow function in series [3] is given as 1.3. Moreover, in series [1] (Table 1, bulk API batch), the “D(3,2)” value is reported as 5.4 μm and the “D(90)” value is 17 μm. For the same compound, in series [1] (setting [13]), the “D(90)” value is given as 16 μm and the “D(100)” value is on record as 90 μm.

Take `Cc1cc2c(s1)Nc1ccccc1N=C2N1CCN(C)CC1` [Olanzapine S2-121, 2-methyl-4-(4-methyl-1-piperazinyl)-10H-thieno[2,3-b][1,5]benzodiazepine]: in series [1] (Table 4), the “D(90)” value was 27 μm and the “D(100)” value came to 196 μm.
